{
  "source": "the supplement of paper PMC10307832",
  "assay_in_all_cases": "relative viability (nuclei count vs DMSO), 5 days (fraction); higher = more cells survive",
  "key": {"[1]": {"test_system": "NCI-H1793", "how_it_was_run": "(§1)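 Relative viability divides the nuclei count in treated wells by that in vehicle wells. Lung cancer cell lines were seeded in 1536-well plates, dosed by pin tool the next day, and fixed and stained after 5 days in one step with final 0.05% Triton X-100, 1% formaldehyde and 1 ug/ml Hoechst. Dosing was a single drug or a fixed anchor-drug dose plus five library-drug doses (not always all listed) in √10 steps, and values are medians of duplicate plates imaged at 4×.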"}, "[2]": {"test_system": "NCI-H1944", "how_it_was_run": "as §1"}, "[3]": {"test_system": "NCI-H2009", "how_it_was_run": "as §1"}, "[4]": {"test_system": "NCI-H2023", "how_it_was_run": "as §1"}, "[5]": {"test_system": "NCI-H2085", "how_it_was_run": "as §1"}, "[6]": {"test_system": "NCI-H2228", "how_it_was_run": "as §1"}, "[7]": {"test_system": "NCI-H2347", "how_it_was_run": "as §1"}, "[8]": {"test_system": "NCI-H2405", "how_it_was_run": "as §1"}, "[9]": {"test_system": "NCI-H3122", "how_it_was_run": "as §1"}, "[10]": {"test_system": "PC-14", "how_it_was_run": "as §1"}, "[11]": {"test_system": "SW 1573", "how_it_was_run": "as §1"}},
  "data": [
    {"smiles": "Cc1csc(=NC2CCCCC2)n1/N=C/c1ccc(O)c(O)c1O", "note": "[MIM1] + CS(=O)(=O)N1CCN(Cc2cc3nc(-c4cccc5[nH]ncc45)nc(N4CCOCC4)c3s2)CC1 [Pictilisib] (partner 1 µM)", "values": [
      {"measurement": "relative viability", "setting": "[1]; first compound 0.2 µM", "result": 0.402},
      {"measurement": "relative viability", "setting": "[1]; first compound 0.6325 µM", "result": 0.314},
      {"measurement": "relative viability", "setting": "[1]; first compound 2 µM", "result": 0.344},
      {"measurement": "relative viability", "setting": "[1]; first compound 6.325 µM", "result": 0.34},
      {"measurement": "relative viability", "setting": "[1]; first compound 20 µM", "result": 0.217},
      {"measurement": "relative viability", "setting": "[2]; first compound 0.2 µM", "result": 0.394},
      {"measurement": "relative viability", "setting": "[2]; first compound 0.6325 µM", "result": 0.335},
      {"measurement": "relative viability", "setting": "[2]; first compound 2 µM", "result": 0.296},
      {"measurement": "relative viability", "setting": "[2]; first compound 6.325 µM", "result": 0.34},
      {"measurement": "relative viability", "setting": "[2]; first compound 20 µM", "result": 0.384},
      {"measurement": "relative viability", "setting": "[3]; first compound 0.2 µM", "result": 0.931},
      {"measurement": "relative viability", "setting": "[3]; first compound 0.6325 µM", "result": 0.812},
      {"measurement": "relative viability", "setting": "[3]; first compound 2 µM", "result": 0.85},
      {"measurement": "relative viability", "setting": "[3]; first compound 6.325 µM", "result": 0.582},
      {"measurement": "relative viability", "setting": "[3]; first compound 20 µM", "result": 0.173},
      {"measurement": "relative viability", "setting": "[4]; first compound 0.2 µM", "result": 0.238},
      {"measurement": "relative viability", "setting": "[4]; first compound 0.6325 µM", "result": 0.26},
      {"measurement": "relative viability", "setting": "[4]; first compound 2 µM", "result": 0.226},
      {"measurement": "relative viability", "setting": "[4]; first compound 6.325 µM", "result": 0.126},
      {"measurement": "relative viability", "setting": "[4]; first compound 20 µM", "result": 0.067},
      {"measurement": "relative viability", "setting": "[5]; first compound 0.2 µM", "result": 0.441},
      {"measurement": "relative viability", "setting": "[5]; first compound 0.6325 µM", "result": 0.431},
      {"measurement": "relative viability", "setting": "[5]; first compound 2 µM", "result": 0.518},
      {"measurement": "relative viability", "setting": "[5]; first compound 6.325 µM", "result": 0.461},
      {"measurement": "relative viability", "setting": "[5]; first compound 20 µM", "result": 0.631},
      {"measurement": "relative viability", "setting": "[6]; first compound 0.2 µM", "result": 0.435},
      {"measurement": "relative viability", "setting": "[6]; first compound 0.6325 µM", "result": 0.316},
      {"measurement": "relative viability", "setting": "[6]; first compound 2 µM", "result": 0.4},
      {"measurement": "relative viability", "setting": "[6]; first compound 6.325 µM", "result": 0.244},
      {"measurement": "relative viability", "setting": "[6]; first compound 20 µM", "result": 0.158},
      {"measurement": "relative viability", "setting": "[7]; first compound 0.2 µM", "result": 0.885},
      {"measurement": "relative viability", "setting": "[7]; first compound 0.6325 µM", "result": 0.733},
      {"measurement": "relative viability", "setting": "[7]; first compound 2 µM", "result": 0.72},
      {"measurement": "relative viability", "setting": "[7]; first compound 6.325 µM", "result": 0.619},
      {"measurement": "relative viability", "setting": "[7]; first compound 20 µM", "result": 0.359},
      {"measurement": "relative viability", "setting": "[8]; first compound 0.2 µM", "result": 0.431},
      {"measurement": "relative viability", "setting": "[8]; first compound 0.6325 µM", "result": 0.52},
      {"measurement": "relative viability", "setting": "[8]; first compound 2 µM", "result": 0.506},
      {"measurement": "relative viability", "setting": "[8]; first compound 6.325 µM", "result": 0.418},
      {"measurement": "relative viability", "setting": "[8]; first compound 20 µM", "result": 0.546},
      {"measurement": "relative viability", "setting": "[9]; first compound 0.2 µM", "result": 0.644},
      {"measurement": "relative viability", "setting": "[9]; first compound 0.6325 µM", "result": 0.529},
      {"measurement": "relative viability", "setting": "[9]; first compound 2 µM", "result": 0.701},
      {"measurement": "relative viability", "setting": "[9]; first compound 6.325 µM", "result": 0.578},
      {"measurement": "relative viability", "setting": "[9]; first compound 20 µM", "result": 0.394},
      {"measurement": "relative viability", "setting": "[10]; first compound 0.2 µM", "result": 0.629},
      {"measurement": "relative viability", "setting": "[10]; first compound 0.6325 µM", "result": 0.709},
      {"measurement": "relative viability", "setting": "[10]; first compound 2 µM", "result": 0.628},
      {"measurement": "relative viability", "setting": "[10]; first compound 6.325 µM", "result": 0.55},
      {"measurement": "relative viability", "setting": "[10]; first compound 20 µM", "result": 0.488},
      {"measurement": "relative viability", "setting": "[11]; first compound 0.2 µM", "result": 0.478},
      {"measurement": "relative viability", "setting": "[11]; first compound 0.6325 µM", "result": 0.508},
      {"measurement": "relative viability", "setting": "[11]; first compound 2 µM", "result": 0.592},
      {"measurement": "relative viability", "setting": "[11]; first compound 6.325 µM", "result": 0.461},
      {"measurement": "relative viability", "setting": "[11]; first compound 20 µM", "result": 0.35}
    ]}
  ]
}
